According to patent publication US10300058B2, “Tyrosine kinase inhibitor and uses thereof” (Xuanzhu Pharma Co., Ltd., priority 2014, dated 2019):

Columns and labels:
[1] = biological target: wild-type EGFR (WT EGFR) (Homo sapiens (Human), UniProt P00533); assay: Mobility Shift Assay, in vitro enzyme-inhibiting activity, wild-type EGFR; type: biochemical; conditions: Km ATP
Method: (§1) 1. Preparation of Reagents
(§2) 2. Preparation of a Compound Solution
(§3) (1) To the second well of a 96-well plate, 5 μL 10 mM compound (dissolved in DMSO) was added, and 95 μL 100% DMSO was added to prepare 100 μL 0.5 mM compound.
(§4) (2) To other wells, 60 μL 100% DMSO was added. 20 μL compound from the second well was added to the third well, and 4-fold dilution was further performed to get 10 diluted concentrations.
(§5) (3) To the first well and the twelfth well of the 96-well plate, 100 μL 100% DMSO was separately added, and the two wells were used as control wells.
(§6) (4) 10 μL from each well of the 96-well plate was added to another 96-well plate, and 90 μL 1-fold kinase buffer was added.
(§7) (5) 5 μL from the 96-well plate was added to another 384-well plate, for example, transferred from A1 well of the 96-well plate to A1 and A2 wells of the 384-well plate, and transferred from A2 well of the 96-well plate to A3 and A4 wells of the 384-well plate, and so on.
(§8) To 384-well plate, 10 μL 2.5-fold enzyme solution was added, and incubated at room temperature for 10 min.
(§9) (5) Kinase reaction and stop
(§10) After incubation at 28° C. for a period of time (depending on kinase), 25 μL stop solution was added.
(§11) 4. Data on percent conversion was read by Caliper.
(§12) (1) Data on enzyme activity was obtained by Caliper program;
(§13) (2) Inhibition rate of enzyme activity was calculated from the data on enzyme activity by the following formula: Inhibition rate(%)=(maximal value−the measured value of a test compound)/(maximal value-minimal value)×100,
(§14) wherein, the maximal value represents the measured value of DMSO control; and the minimal value represents the measured value of blank control.
(§15) (3) Calculation of IC50 value by XLFit excel.

[2] = biological target: EGFR T790M (Homo sapiens (Human), UniProt P00533, T790M); assay: Mobility Shift Assay, in vitro enzyme-inhibiting activity, EGFR T790M; type: biochemical; conditions: for IC50: Km ATP; for Selectivity (WT/T790M): ratio of IC50
Method: as §1, §2, §3, §4, §5, §6, §7, §8, §9, §10, §11, §12, §13, §14, §15

[3] = biological target: EGFR L858R (Homo sapiens (Human), UniProt P00533, L858R); assay: Mobility Shift Assay, in vitro enzyme-inhibiting activity, EGFR L858R; type: biochemical; conditions: Table 6
Method: as §1, §2, §3, §4, §5, §6, §7, §8, §9, §10, §11, §12, §13, §14, §15

[4] = biological target: EGFR T790M-L858R (Homo sapiens (Human), UniProt P00533, L858R/T790M); assay: Mobility Shift Assay, in vitro enzyme-inhibiting activity, EGFR T790M-L858R; type: biochemical; conditions: Table 6
Method: as §1, §2, §3, §4, §5, §6, §7, §8, §9, §10, §11, §12, §13, §14, §15

[5] = biological target: EGFR (d746-750) (Homo sapiens (Human), UniProt P00533, DEL746-750); assay: Mobility Shift Assay, in vitro enzyme-inhibiting activity, EGFR (d746-750); type: biochemical; conditions: Table 6
Method: as §1, §2, §3, §4, §5, §6, §7, §8, §9, §10, §11, §12, §13, §14, §15

[6] = biological target: EGFR (d746-750)-T790M (Homo sapiens (Human), UniProt P00533, DEL746-750/T790M); assay: Mobility Shift Assay, in vitro enzyme-inhibiting activity, EGFR (d746-750)-T790M; type: biochemical; conditions: Table 6
Method: as §1, §2, §3, §4, §5, §6, §7, §8, §9, §10, §11, §12, §13, §14, §15

[7] = system: H1975 cell (EGFR-T790M/L858R double mutation); assay: In vitro cytologic activity, Celltiter-Glo, H1975 cells; type: cell-based, human; conditions: Table 10; for IC50: Homo sapiens, NCI-H1975, 72 h, 72 h, Celltiter-Glo, unit inferred; for Selectivity (A431/H1975): ratio of IC50
Method: (§16) 1.1 Preparation of Cell Suspension
(§17) Culture medium was removed from culture bottle;
(§18) PBS was added to wash the cells; • pancreatin was added for digestion, and the cells were collected by centrifugation; • the cells were resuspended in a culture medium containing 10% fetal bovine serum, counted and adjusted to a concentration of 2×10^4/mL or 3×10^4/mL (cell viability must be greater than 90%); • the cell suspension was added to a 96-well plate, at 100 μL for each well, i.e., 2000/well for H1975 cell; 3000/well for A431 cell; and • the cells were cultured at 37° C. in 5% CO2 incubator overnight.
(§19) Dilution of a compound in DMSO (or water for injection) • (1) The compound was 5-fold diluted with DMSO from 10 mM to 2 mM, and then 4-fold diluted from 2 mM, to get 10 concentrations; • High control (HC, control without compound inhibition): 0.5% DMSO; • Low control (LC, control with compound inhibition): 1000 nM.
(§20) i. To each well, 99 μL growth medium containing 10% FBS was added, and then 1 μL diluted compound was added, the total volume of the well was […], and the final concentration of the compound was measured.
(§21) The test plate was left at room temperature, and equilibrated for 30 min. 80 μL culture medium was discarded. 60 μL CTG reagent (Celltiter-Glo kit) was added, and shaked for 2 min in a fast shaker, and was placed at room temperature for 10 min. The values were read by Envision instrument.

[8] = system: A431 cell (wild-type EGFR gene); assay: In vitro cytologic activity, Celltiter-Glo, A431 cells; type: cell-based; conditions: Homo sapiens, A-431, 72 h, Table 10, unit inferred
Method: as §16, §17, §18, §19, §20, §21

Sequence of wild-type EGFR (WT EGFR) (P00533 25-1210): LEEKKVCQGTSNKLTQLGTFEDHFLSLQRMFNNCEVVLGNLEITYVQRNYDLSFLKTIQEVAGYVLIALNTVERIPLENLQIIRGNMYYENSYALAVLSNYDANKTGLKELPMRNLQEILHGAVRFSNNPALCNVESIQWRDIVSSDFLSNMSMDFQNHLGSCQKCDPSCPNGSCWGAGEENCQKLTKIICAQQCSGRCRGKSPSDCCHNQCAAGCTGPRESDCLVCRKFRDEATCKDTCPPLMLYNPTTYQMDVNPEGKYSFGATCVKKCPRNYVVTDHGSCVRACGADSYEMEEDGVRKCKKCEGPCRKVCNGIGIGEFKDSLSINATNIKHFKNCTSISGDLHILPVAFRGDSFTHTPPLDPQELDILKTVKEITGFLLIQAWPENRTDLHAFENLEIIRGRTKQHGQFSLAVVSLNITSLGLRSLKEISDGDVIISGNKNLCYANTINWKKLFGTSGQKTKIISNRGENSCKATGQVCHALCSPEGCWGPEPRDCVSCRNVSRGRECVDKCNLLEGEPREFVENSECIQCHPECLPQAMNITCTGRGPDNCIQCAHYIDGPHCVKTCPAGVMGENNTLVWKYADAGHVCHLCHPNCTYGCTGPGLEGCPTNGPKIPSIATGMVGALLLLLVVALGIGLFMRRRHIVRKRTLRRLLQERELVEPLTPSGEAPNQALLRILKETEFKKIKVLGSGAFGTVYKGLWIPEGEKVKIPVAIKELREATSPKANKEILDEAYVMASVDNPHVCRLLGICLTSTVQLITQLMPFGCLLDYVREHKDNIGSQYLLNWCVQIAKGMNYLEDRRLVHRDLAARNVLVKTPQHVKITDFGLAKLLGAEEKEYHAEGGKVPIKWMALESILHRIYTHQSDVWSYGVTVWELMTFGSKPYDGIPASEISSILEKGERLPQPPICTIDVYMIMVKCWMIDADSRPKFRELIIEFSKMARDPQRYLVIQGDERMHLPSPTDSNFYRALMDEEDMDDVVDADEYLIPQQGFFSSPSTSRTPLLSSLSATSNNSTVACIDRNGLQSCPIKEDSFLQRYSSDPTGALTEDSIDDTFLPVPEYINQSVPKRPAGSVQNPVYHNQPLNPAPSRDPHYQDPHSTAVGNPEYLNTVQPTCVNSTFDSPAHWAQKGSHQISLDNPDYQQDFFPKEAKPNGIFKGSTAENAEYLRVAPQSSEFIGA
Sequence of EGFR T790M (P00533 25-1210 T790M): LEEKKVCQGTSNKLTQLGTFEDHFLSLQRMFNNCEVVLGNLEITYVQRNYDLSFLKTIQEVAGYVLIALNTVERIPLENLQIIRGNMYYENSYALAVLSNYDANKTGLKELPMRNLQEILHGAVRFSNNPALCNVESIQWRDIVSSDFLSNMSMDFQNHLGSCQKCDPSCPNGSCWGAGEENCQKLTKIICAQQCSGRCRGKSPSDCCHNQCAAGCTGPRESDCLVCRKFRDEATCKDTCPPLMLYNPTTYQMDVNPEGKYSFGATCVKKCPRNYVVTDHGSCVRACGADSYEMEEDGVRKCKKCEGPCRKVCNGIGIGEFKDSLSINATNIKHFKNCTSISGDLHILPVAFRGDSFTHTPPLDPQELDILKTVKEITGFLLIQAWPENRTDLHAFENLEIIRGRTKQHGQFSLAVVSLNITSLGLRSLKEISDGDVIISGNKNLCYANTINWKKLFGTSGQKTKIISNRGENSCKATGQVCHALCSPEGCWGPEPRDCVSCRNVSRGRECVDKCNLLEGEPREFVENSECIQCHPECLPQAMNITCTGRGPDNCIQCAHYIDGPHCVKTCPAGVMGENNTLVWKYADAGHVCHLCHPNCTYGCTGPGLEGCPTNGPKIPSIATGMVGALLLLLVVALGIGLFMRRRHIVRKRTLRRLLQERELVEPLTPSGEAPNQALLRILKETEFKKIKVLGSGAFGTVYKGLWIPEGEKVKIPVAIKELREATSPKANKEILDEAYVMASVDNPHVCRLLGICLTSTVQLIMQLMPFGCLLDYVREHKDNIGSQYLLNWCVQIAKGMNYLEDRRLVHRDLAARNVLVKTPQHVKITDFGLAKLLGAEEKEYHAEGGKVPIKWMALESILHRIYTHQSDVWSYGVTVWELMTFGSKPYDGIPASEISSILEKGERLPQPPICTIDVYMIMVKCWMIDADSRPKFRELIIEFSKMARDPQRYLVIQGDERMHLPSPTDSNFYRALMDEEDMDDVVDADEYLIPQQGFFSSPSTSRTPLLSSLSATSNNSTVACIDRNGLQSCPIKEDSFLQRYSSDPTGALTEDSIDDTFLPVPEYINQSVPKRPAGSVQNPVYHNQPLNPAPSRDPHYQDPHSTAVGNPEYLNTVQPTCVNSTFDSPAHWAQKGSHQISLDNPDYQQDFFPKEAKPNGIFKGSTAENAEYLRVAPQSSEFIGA
Sequence of EGFR (d746-750) (P00533 other isoform, or with tags, fused parts or gaps del 1-668/del 746-750 limits assumed): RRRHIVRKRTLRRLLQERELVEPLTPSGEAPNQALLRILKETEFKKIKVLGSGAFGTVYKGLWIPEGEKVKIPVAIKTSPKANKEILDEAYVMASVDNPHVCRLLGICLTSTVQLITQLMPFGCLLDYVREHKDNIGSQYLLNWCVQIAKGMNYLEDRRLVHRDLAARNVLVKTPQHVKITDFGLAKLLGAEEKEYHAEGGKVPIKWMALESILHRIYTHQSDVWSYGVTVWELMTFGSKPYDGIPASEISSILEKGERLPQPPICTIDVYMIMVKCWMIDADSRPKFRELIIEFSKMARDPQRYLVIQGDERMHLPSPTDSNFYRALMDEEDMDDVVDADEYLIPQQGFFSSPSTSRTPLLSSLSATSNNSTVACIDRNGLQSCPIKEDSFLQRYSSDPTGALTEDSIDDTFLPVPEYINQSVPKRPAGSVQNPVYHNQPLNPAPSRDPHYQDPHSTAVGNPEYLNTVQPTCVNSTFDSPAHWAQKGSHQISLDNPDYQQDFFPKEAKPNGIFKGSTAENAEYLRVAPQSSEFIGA
Sequence of EGFR (d746-750)-T790M (P00533 other isoform, or with tags, fused parts or gaps T790M/del 1-668/del 746-750 limits assumed): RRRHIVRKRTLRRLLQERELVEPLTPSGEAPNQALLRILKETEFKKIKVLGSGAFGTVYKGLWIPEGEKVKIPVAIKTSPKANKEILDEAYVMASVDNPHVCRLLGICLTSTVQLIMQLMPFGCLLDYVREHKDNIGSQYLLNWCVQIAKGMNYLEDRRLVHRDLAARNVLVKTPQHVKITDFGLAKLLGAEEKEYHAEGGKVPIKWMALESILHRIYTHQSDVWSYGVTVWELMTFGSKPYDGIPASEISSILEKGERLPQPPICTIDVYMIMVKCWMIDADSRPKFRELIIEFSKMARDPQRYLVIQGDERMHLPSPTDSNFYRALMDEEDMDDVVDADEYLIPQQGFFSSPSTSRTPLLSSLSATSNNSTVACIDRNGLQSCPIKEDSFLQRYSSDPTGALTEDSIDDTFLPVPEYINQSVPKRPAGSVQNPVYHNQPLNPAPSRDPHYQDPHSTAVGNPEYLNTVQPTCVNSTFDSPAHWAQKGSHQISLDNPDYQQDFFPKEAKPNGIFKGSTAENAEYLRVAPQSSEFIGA
Sequence of EGFR L858R (P00533 25-1210 L858R): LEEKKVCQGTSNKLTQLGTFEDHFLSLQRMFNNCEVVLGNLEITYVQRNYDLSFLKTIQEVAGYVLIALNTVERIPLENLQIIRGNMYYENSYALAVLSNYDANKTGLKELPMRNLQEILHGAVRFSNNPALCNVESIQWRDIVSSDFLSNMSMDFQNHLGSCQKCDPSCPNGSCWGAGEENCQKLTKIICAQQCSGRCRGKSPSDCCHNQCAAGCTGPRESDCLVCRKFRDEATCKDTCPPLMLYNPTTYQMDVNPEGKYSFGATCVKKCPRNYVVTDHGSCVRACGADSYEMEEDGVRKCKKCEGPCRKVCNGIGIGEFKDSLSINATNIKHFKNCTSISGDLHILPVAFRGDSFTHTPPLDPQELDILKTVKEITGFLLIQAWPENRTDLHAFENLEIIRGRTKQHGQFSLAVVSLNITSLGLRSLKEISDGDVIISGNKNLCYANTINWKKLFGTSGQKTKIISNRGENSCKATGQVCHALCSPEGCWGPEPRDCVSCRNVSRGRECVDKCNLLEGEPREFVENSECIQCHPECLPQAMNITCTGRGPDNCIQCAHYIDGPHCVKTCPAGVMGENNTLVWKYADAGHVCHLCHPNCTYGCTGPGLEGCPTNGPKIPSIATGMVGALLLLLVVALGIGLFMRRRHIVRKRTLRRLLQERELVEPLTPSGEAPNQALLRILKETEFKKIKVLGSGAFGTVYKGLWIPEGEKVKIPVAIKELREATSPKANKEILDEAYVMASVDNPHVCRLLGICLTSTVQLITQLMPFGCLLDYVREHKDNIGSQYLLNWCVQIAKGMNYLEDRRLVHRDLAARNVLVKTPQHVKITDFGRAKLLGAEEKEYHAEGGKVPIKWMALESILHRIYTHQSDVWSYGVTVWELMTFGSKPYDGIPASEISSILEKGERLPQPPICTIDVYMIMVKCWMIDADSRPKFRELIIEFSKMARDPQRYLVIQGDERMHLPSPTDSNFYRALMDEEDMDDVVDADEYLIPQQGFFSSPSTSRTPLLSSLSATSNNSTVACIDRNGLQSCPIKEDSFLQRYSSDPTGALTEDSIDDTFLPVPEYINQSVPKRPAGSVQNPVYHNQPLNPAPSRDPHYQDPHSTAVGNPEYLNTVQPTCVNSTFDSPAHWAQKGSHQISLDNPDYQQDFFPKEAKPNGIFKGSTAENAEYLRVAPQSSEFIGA

| Compound | IC50 ([1]; Table 6) [nM] | IC50 ([2]; Table 6) [nM] | Selectivity (WT/T790M) ([2]; Table 6) | IC50 ([3]; Km ATP) [nM] | Selectivity WT/L858R ([3]; ratio of IC50) | IC50 ([4]; Km ATP) [nM] | Selectivity WT/T790M-L858R ([4]; ratio of IC50) | IC50 ([5]; Km ATP) [nM] | Selectivity WT/d746-750 ([5]; ratio of IC50) | IC50 ([6]; Km ATP, read-out: IC50 EGFR (d746-750)-T790M) [nM] | Selectivity WT/(d746-750)-T790M ([6]; ratio of IC50) | IC50 [7] [nM] | Selectivity (A431/H1975) [7] | IC50 [8] [nM] | IC50 ([1]; Table 4, unit inferred) [nM] | IC50 ([2]; Table 4, unit inferred) [nM] | Selectivity (WT/T790M) ([2]; Table 4) |
| --- | --- | --- | --- | --- | --- | --- | --- | --- | --- | --- | --- | --- | --- | --- | --- | --- | --- |
| C=CC(=O)Nc1cccc(Nc2nc(Nc3ccc(C4CCN(C)C(=O)C4)cc3OC)ncc2C(F)(F)F)c1 (centres unmarked) [Compound 21, N-(3-((2-((2-methoxy-4-(1-methyl-2-oxopiperidin-4-yl)phenyl)amino)-5-(trifluoromethyl)pyrimidin-4-yl)amino)phenyl)acrylamide] | 236 | 3.5 | 67.4 | 35 | 6.7 | 3.3 | 71.5 | 28 | 8.4 | 3.5 | 67.4 | 211 | 11.9 | 2500 |  |  |  |
| C=CC(=O)Nc1cccc(Nc2nc(Nc3ccc(C4CCN(C5COC5)CC4)cc3OC)ncc2C(F)(F)F)c1 [Compound 41, N-(3-((2-((2-methoxy-4-(1-(oxetan-3-yl)piperidin-4-yl)phenyl)amino)-5-(trifluoromethyl)pyrimidin-4-yl)amino)phenyl)acrylamide] |  |  |  |  |  |  |  |  |  |  |  | 28.5 | 8.6 | 247 | 82 | 1.4 | 58.6 |
| C=CC(=O)Nc1cccc(Nc2nc(Nc3ccc(OCCCS(C)(=O)=O)cc3OC)ncc2C(F)(F)F)c1 [Compound 43, N-(3-((2-((2-methoxy-4-(3-(methylsulfonyl)propoxy)phenyl)amino)-5-(trifluoromethyl)pyrimidin-4-yl)amino)phenyl)acrylamide] |  |  |  |  |  |  |  |  |  |  |  | 430 | 6.1 | 2640 | 159 | 3.6 | 44.2 |
